Laboratory results taken from patent US20170165259A1, “COMBINED MODULATION OF IRE1” (THE REGENTS OF THE UNIVERSITY OF CALIFORNIA, priority 2014, published 2017).

Legend:
Assay type in all cases: cell-based, rat
IRE1α (WT) = test: Dox-induced IRE1α (WT) hyperactivation in INS-1 stable lines; conditions: STF-083010 at 50 µM
Text: These aforementioned terminal UPR signaling events can be completely mimicked simply by controlled over-expression of IRE1α, in the complete absence of upstream ER stress. Tetracycline-inducible isogenic INS-1 stable cell lines expressing WT IRE1α were generated. Induced with doxycycline (dox) the transgenic IRE1α proteins oligomerize, spontaneously trans-autophosphorylate and trigger XBP1 mRNA splicing. The transgenic systems are finely tuneable, with increasing [Dox] causing progressively greater IRE1α induction (the transgenic IRE1α protein is Myc-tagged). Phospho/Myc IRE1α ratios are finely controllable (and measureable) with increasing [Dox], as is XBP1 mRNA splicing. […] These include reduction of miR-17 and Ins1 mRNA, induction of CHOP mRNA, induction and proteolytic cleavage of caspases 1,2, and 3, and apoptosis as measured by Annexin-V staining. […]
For protein analysis, cells were lysed in M-PER buffer (Thermo Scientific) plus complete EDTA-free protease inhibitor (Roche) and phosphatase inhibitor cocktail (Sigma). The concentration of samples was determined using BCA Protein Assay (Thermo). […] Antibody binding was detected by using near-infrared-dye-conjugated secondary antibodies (Licor) on the LI-COR Odyssey scanner or visualized by capturing on a CL-XPosure film using ECL SuperSignal West Dura Extended Duration Substrate (both from Thermo Scientific).

endogenous IRE1α [1] = test: XBP1 mRNA splicing in INS-1 cells under ER stress; conditions: thapsigargin (Tg) 6 nM
Experimental: (§1) FIGS. 5A-5E. […] (FIG. 5C) EtBr-stained agarose gel of XBP1 complementary DNA (cDNA) amplicons from the INS-1 cells described in (B).
(§2) To further explore how IRE1α modulators affect the kinase and RNase activities of endogenous IRE1α under ER stress, in vivo studies using INS-1 rat insulinoma cell lines, which are derived from insulin-producing pancreatic β-cell tumors and contain large well-developed ERs, were conducted.

endogenous IRE1α [2] = test: IRE1α auto-phosphorylation immunoblot in INS-1 cells under ER stress; conditions: ER stress (Tg)
Experimental: as §1, §2
For protein analysis, cells were lysed in M-PER buffer (Thermo Scientific) plus complete EDTA-free protease inhibitor (Roche) and phosphatase inhibitor cocktail (Sigma). The concentration of samples was determined using BCA Protein Assay (Thermo). […] Gels were run using MES buffer and transferred onto nitrocellulose transfer membrane using an XCell II™ Blot Module. Blocking, antibody incubation, and washing were done in PBS or TBS with 0.05% Tween-20 (v/v) and 5% (w/v) non-fat dry milk or BSA, or blocking buffer (Licor-Odyssey). Antibodies used were: mouse anti-Actin (Sigma-Aldrich); rabbit anti-cleaved Caspase-2 (Abcam); mouse anti-GAPDH, anti-c-Myc, anti-rabbit, anti-proinsulin, and anti-IRE1α (Santa Cruz Biotechnology); anti-phospho-IRE1α and anti-full length Caspase-2 (Novus Biologicals); and rabbit anti-Caspase-3, anti-JNK, anti-eIF2a, anti-phospho-eIF2a, and mouse anti-phospho-JNK (Cell Signaling). Antibody binding was detected by using near-infrared-dye-conjugated secondary antibodies (Licor) on the LI-COR Odyssey scanner or visualized by capturing on a CL-XPosure film using ECL SuperSignal West Dura Extended Duration Substrate (both from Thermo Scientific).

INS-1 cells = test: Annexin V apoptosis of INS-1 cells under ER stress
Experimental: FIGS. 19A-19D. KIRA6 inhibits Terminal UPR outputs of IRE1α to protect against ER stress-induced apoptosis. […] (FIG. 19B) Q-PCR for Ins1 mRNA in INS-1 IRE1α (WT) cells treated with Dox (5 ng/ml)−/+STF-083010 (50 M) over the indicated timecourse. (FIG. 19C) Annexin V staining of INS-1 cells after 72 hr with indicated [Tm]−/+STF-083010 (50 M). (FIG. 19D) Annexin V staining of INS-1 cells after 72 hr with Tm (0.2 μg/ml), STF-083010 (1 or 5 M), and KIRA6 (0.05 M) as indicated. Data plotted as mean+/−SD. P-values: *<0.05, **<0.01, ***<0.005.
For assaying apoptosis by Annexin V staining, cells were plated in 12-well plates overnight. Cells were then treated with various reagents for indicated time periods. On the day of flow cytometry analysis, cells were trypsinized and washed in PBS and resuspended in Annexin V binding buffer with Annexin-V FITC (BD Pharmingen™). Flow cytometry was performed on a Becton Dickinson LSRII flow cytometer.

SMILES: O=S(=O)(N=Cc1c(O)ccc2ccccc12)c1cccs1 [STF-083010, N-[(2-Hydroxy-1-naphthalenyl)methylene]-2-thiophenesulfonamide, reference compound]
- Ins1 mRNA decay under IRE1α hyperactivation (IRE1α (WT)): decreases Ins1 mRNA decay under IRE1α hyperactivation
- XBP1 mRNA splicing (IRE1α RNase activity) in INS-1 cells (endogenous IRE1α [1]): inhibits XBP1 splicing in a dose-dependent manner
- endogenous IRE1α auto-phosphorylation in INS-1 cells (endogenous IRE1α [2]): does not prevent IRE1α auto-phosphorylation
- endogenous IRE1α auto-phosphorylation in INS-1 cells (endogenous IRE1α [2]; listed as STF): does not inhibit IRE1α auto-phosphorylation
- cytoprotection under Tm, single agent at the dose of the combination (INS-1 cells; STF-083010 1 M or KIRA6 50 nM alone): sub-therapeutic individually
- apoptosis by Tm (INS-1 cells; STF-083010 at 50 µM): decreases
